The experiment addresses T1, L-selectin (Homo sapiens, UniProt P14151).
T1 construct: gene SELL
T1 sequence (P14151 39-372): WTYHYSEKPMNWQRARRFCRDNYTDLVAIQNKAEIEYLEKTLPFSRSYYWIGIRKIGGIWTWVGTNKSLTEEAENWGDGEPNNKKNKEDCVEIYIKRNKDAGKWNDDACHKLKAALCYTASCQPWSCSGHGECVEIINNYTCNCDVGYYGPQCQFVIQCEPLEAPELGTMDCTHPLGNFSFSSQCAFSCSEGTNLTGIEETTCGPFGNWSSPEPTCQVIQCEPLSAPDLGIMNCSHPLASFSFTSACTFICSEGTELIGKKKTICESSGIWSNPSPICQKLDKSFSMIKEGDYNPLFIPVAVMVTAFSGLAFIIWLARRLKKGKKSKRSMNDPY
Put plainly: competitive SPR binding assay.

Regarding `O=C(NC(COS(=O)(=O)O)COS(=O)(=O)O)c1ccc(C(=O)NC(COS(=O)(=O)O)COS(=O)(=O)O)cc1` [compound 32, O-sulfated divalent amide 32], the IC50 came to 1000 nM. That is a single-digit micromolar value.
In turn, `CC1(C)O[C@H](COS(=O)(=O)O)[C@H](NC(=O)c2ccc(-c3cc(-c4ccc(C(=O)N[C@@H]5[C@@H](OS(=O)(=O)O)[C@H](COS(=O)(=O)O)C(C)(C)O[C@@H]5COS(=O)(=O)O)cc4)cc(-c4ccc(C(=O)N[C@@H]5[C@@H](OS(=O)(=O)O)[C@H](COS(=O)(=O)O)C(C)(C)O[C@@H]5COS(=O)(=O)O)cc4)c3)cc2)[C@@H](OS(=O)(=O)O)[C@@H]1COS(=O)(=O)O` [compound 34, O-sulfated trivalent amide 34] displayed an IC50 of 2000 nM.

The record behind these values is paper PMC4464473, “Synthesis of multivalent carbohydrate mimetics with aminopolyol end groups and their evaluation as L-selectin inhibitors” (Beilstein Journal of Organic Chemistry, 2015).
